As a reminder, the IC50 is the concentration at which inhibition is half-maximal. Usually EC50 stands for the concentration giving half of the maximal effect. The term inhibition denotes the percentage by which the read-out fell short of the control.

Where two headings read alike, the source gives them in different places.

In one test the target is AMPKα1 (Homo sapiens (Human), UniProt Q13131). Briefly: LANCE Eu TR-FRET recombinant kinase assay, AMPK(α1). Format: biochemical. On the procedure:
(§1) Assays were performed at 25° C. in a reaction mixture consisting of 2.5 μL serially diluted inhibitor solution, 2.5 μL kinase, 2.5 μL ATP and 2.5 μL substrate. Reagents were incubated for 1 hr before the reaction was halted through the addition of EDTA (10 mM) after which Eu anti-phospho-CREB (Ser133) antibody (PerkinElmer) was added at a final concentration of 2 nM for 1 hr. […] (n=3)).
(TR-FRET usually uses a lanthanide donor and a delayed reading to cut background.)

A further test deals with AMPK(α2) (Homo sapiens (Human), UniProt P54646). Briefly: LANCE Eu TR-FRET recombinant kinase assay, AMPK(α2). The following applies: mean±S.D. (n=3); ATP 20 μM. It counts as biochemical. On the procedure:
as §1

The test system of test [1] is K562 cells. Briefly: MTS cell viability assay in K562 cells. The following applies: Homo sapiens; K562, RPMI-1640; Table 2 head prints 24 h, method and FIG. 3A legend 72 hours. It counts as cell-based. On the procedure:
(§2) The cells were incubated with inhibitors for 24 hours, before the plates were equilibrated to room temperature and 100 μL CellTiter-Glo reagent was added. […] Luminescent signal was plotted against the inhibitor log-dose and evaluated by a non-linear regression to determine half-maximal effect concentration (EC50) values, where possible.
An MTS assay was utilized to assess the effect of inhibitors on K562 viability.
On the technique in general: Tetrazolium assays rely on reduction of a dye to a coloured formazan, in cell work by metabolically active cells.

For test [2], the system named is K562 cells. Briefly: CellTiter-Glo cell viability assay in K562 cells (glucose-free media). The following applies: Homo sapiens, read-out: EC50 CellTiter Glo 24 h. It counts as cell-based. On the procedure:
as §2
(§3) In order to increase the reliance of the cells on AMPK function, assays were needed that could be performed under glucose-free conditions. Therefore in order to elucidate the mechanism of action of the AMPK inhibitors, a CellTiter-Glo cell viability assay (FIG. 3B), which provide a readout proportional to ATP concentration, and thus, cellular viability, as well as a CellTox green cellular toxicity assay (FIG. 3C and FIG. 3D), which contain a dye that fluoresces upon DNA-binding in cells with impraied membrane integrity due to cytotoxicity were performed in K562 cells grown in glucose-free media. The results are summarized in Table 2 (values are the mean±S.D. (n=3)).
On the technique in general: In ATP-based viability assays light output follows the ATP content of the culture.

For test [3], the system named is K562 cells. Briefly: CellTox green cellular toxicity assay in K562 cells (glucose-free media). It counts as cell-based. The following applies: Homo sapiens.
Text: Fluorescence was plotted against inhibitor log-dose and evaluated by a non-linear regression to determine half-maximal effect concentration (EC50) values, where possible.
as §3

A further test addresses KDR (Homo sapiens (Human), UniProt P35968). Briefly: LanthaScreen Eu TR-FRET KDR competitive binding assay.
Where [4] appears, read: mean±S.D. (n=3), ATP 8 μM, read-out: IC50 (nM) AMPK(α1).
[5] abbreviates: read-out: EC50 CellTox Green 48 h, 48 h.
Where [6] appears, read: read-out: EC50 CellTox Green 24 h, 24 h.
Setting [7] is: read-out: IC50 (nM) KDR, mean±S.D. (n=3), competitive binding.

KDR, sequence (P35968 20-1356): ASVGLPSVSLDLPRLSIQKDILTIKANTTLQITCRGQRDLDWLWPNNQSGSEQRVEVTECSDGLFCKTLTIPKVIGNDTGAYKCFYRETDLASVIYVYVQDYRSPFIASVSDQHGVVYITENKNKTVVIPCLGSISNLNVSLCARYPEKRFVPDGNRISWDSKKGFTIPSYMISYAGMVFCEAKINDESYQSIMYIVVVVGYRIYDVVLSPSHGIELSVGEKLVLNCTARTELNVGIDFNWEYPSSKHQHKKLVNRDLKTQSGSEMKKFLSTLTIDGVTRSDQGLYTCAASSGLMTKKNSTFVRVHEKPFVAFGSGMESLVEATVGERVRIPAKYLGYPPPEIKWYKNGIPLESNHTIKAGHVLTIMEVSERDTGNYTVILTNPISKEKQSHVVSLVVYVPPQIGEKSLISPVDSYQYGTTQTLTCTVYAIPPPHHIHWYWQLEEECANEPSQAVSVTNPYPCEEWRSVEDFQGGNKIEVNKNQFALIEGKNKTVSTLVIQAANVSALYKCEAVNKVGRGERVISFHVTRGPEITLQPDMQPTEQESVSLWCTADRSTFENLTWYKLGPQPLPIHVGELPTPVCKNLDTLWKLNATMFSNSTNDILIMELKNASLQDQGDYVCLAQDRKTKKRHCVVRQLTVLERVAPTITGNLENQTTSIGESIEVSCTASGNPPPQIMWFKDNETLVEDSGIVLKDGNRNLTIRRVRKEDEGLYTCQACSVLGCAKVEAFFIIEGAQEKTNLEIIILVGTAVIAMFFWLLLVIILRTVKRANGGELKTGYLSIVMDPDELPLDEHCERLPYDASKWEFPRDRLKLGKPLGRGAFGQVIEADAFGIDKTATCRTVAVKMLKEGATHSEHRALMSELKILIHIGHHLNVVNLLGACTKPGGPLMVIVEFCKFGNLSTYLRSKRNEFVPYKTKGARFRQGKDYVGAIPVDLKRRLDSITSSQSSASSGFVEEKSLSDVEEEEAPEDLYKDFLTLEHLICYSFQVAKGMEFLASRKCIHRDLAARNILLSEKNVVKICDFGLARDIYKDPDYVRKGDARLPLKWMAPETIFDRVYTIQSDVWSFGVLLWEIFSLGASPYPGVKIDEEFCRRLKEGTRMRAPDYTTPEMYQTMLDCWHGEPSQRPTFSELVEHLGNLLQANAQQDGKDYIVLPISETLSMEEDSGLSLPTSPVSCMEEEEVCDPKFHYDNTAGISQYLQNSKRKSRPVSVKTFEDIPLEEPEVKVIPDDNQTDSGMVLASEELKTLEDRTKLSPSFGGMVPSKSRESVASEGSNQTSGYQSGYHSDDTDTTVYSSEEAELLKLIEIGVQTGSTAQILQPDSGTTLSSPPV
AMPK(α2), sequence (P54646 whole entry, looked up): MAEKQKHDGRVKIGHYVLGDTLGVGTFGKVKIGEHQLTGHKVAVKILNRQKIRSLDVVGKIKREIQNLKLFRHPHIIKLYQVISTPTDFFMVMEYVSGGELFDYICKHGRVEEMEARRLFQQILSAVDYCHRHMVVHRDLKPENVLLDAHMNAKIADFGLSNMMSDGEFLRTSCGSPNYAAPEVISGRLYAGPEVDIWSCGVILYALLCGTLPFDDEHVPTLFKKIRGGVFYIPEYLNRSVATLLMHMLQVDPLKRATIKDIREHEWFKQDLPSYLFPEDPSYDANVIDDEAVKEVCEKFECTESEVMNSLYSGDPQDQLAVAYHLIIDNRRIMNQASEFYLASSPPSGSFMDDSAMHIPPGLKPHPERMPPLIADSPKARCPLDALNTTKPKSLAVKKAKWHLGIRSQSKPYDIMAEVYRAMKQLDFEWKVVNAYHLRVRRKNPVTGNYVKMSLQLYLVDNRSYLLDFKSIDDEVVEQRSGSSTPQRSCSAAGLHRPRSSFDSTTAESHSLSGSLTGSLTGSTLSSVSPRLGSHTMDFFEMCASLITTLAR
AMPK(α2), sequence (Q9Y478 whole entry partner, looked up): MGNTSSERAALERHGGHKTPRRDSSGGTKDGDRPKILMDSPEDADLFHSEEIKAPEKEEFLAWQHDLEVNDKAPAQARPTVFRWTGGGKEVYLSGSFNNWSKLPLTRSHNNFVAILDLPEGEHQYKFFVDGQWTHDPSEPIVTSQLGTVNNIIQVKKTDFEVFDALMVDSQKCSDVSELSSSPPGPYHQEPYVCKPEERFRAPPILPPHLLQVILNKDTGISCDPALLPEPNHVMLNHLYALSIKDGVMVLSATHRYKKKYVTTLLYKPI
AMPK(α2), sequence (P54619 whole entry partner, looked up): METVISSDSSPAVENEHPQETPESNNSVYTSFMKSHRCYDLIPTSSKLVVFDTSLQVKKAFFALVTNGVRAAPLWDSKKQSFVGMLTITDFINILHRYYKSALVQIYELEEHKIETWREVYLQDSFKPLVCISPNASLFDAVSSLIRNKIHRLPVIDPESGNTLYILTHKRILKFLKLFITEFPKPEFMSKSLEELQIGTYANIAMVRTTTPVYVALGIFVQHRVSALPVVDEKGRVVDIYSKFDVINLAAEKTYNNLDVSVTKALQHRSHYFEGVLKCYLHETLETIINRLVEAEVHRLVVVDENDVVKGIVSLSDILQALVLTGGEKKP
AMPKα1, sequence (Q13131 whole entry, looked up): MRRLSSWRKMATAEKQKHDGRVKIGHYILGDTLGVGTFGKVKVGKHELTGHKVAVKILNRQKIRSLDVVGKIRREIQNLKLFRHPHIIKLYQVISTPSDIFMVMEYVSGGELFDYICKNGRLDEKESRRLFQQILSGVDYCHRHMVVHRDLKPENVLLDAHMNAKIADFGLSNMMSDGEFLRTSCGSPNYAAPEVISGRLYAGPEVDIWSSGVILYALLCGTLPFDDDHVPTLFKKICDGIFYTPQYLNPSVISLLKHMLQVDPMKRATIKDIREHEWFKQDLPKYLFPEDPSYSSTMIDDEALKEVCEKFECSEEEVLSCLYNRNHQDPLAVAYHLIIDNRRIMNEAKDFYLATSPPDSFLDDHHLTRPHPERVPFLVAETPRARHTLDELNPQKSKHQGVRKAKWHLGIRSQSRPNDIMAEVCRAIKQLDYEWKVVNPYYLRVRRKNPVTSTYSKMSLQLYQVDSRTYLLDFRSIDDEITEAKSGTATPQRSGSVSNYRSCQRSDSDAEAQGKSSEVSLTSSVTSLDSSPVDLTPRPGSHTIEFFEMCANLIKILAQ
AMPKα1, sequence (Q9Y478 whole entry partner, looked up): as the sequence (Q9Y478 whole entry partner, looked up) above
AMPKα1, sequence (P54619 whole entry partner, looked up): as the sequence (P54619 whole entry partner, looked up) above

Turning to `CCN(CC)CCNC(=O)c1c(C)[nH]c(/C=C2\C(=O)Nc3ccc(CNC(N)=O)cc32)c1C` [Compound No. 18, (Z)—N-(2-(Diethylamino)ethyl)-2,4-dimethyl-5-((2-oxo-5-(ureidomethyl)indolin-3-ylidene)methyl)-1H-pyrrole-3-carboxamide], the IC50 on AMPKα1 (setting [4]) was 205 ± 52 nM; on AMPK(α2), 83.6 ± 7 nM.

For `CCN(CC)CCNC(=O)c1c(C)[nH]c(/C=C2\C(=O)Nc3ccc(CCN=[N+]=[N-])cc32)c1C` [Compound No. 13, (Z)-5-((5-(2-Azidoethyl)-2-oxoindolin-3-ylidene)methyl)-N-(2-(diethylamino)ethyl)-2,4-dimethyl-1H-pyrrole-3-carboxamide], the IC50 at AMPKα1 (setting [4]) amounted to 139 ± 13 nM; on AMPK(α2), 101 ± 20 nM; on KDR (read-out: KDR IC50, values in μM) it was 2.26 ± 0.11 µM. Besides, the EC50 in the test with K562 cells [1] was 3.83 ± 0.05 µM; in the test with K562 cells [2] it was 4.86 ± 0.16 µM; in the test with K562 cells [3] (setting [5]), 4.81 ± 0.08 µM.

For `Cc1[nH]c(/C=C2\C(=O)Nc3ccc(F)cc32)c(C)c1C(=O)NCCCN(C)C` [Compound No. 7, (Z)—N-(3-(Dimethylamino)propyl)-5-((5-fluoro-2-oxoindolin-3-ylidene)methyl)-2,4-dimethyl-1H-pyrrole-3-carboxamide], the IC50 on AMPKα1 (setting [4]) worked out at 221 ± 31 nM; on AMPK(α2), 74.8 ± 3.1 nM.

For `CCN(CC)CCNC(=O)c1c(C)[nH]c(/C=C2\C(=O)Nc3ccc(CCN(C)C)cc32)c1C` [Compound No. 12, (Z)—N-(2-(Diethylamino)ethyl)-5-((5-(2-(dimethylamino)ethyl)-2-oxoindolin-3-ylidene)methyl)-2,4-dimethyl-1H-pyrrole-3-carboxamide], the IC50 on AMPKα1 (text value in μM, read-out: AMPKα1 IC50) amounted to 2100 ± 440 nM; on AMPK(α2), 154 ± 53 nM.

On to `CCNCCNC(=O)c1c(C)[nH]c(/C=C2\C(=O)Nc3ccc(F)cc32)c1C` [Compound No. 6], for which the values for the IC50 on AMPKα1 (setting [4]), on AMPK(α2) and on KDR (setting [7]) were 180 ± 24 nM, 61.4 ± 12.7 nM and 0.505 ± 0.018 µM, respectively. For the same compound, the EC50 was 13.6 ± 1.69 µM with K562 cells [1], 15.5 ± 0.48 µM in the test on K562 cells [2], 12.89 ± 0.11 µM with K562 cells [3] (setting [6]) and 11.9 ± 1.58 µM in the test with K562 cells [3] (setting [5]).

For the compound `CCN(CC)CCNC(=O)c1c(C)[nH]c(/C=C2\C(=O)Nc3cc(F)ccc32)c1C` [Compound No. 20, (Z)—N-(2-(Diethylamino)ethyl)-5-((6-fluoro-2-oxoindolin-3-ylidene)methyl)-2,4-dimethyl-1H-pyrrole-3-carboxamide], the values for the IC50 on AMPKα1 (setting [4]), at AMPK(α2) and on KDR (setting [7]) were 240 ± 37 nM, 49.4 ± 22.1 nM and 0.189 ± 0.007 µM, respectively. Also, the concentration for a half-maximal effect (EC50) with K562 cells [1] came to 2.85 ± 0.22 µM; with K562 cells [3] (setting [5]) it was 7.15 ± 0.35 µM.

Turning to `CCN(CC)CCNC(=O)c1c(C)[nH]c(/C=C2\C(=O)Nc3ccc(CCNC(C)=O)cc32)c1C` [Compound No. 14, (Z)-5-((5-(2-Acetamidoethyl)-2-oxoindolin-3-ylidene)methyl)-N-(2-(diethylamino)ethyl)-2,4-dimethyl-1H-pyrrole-3-carboxamide], the IC50 at AMPKα1 (setting [4]) was 184 ± 11 nM; on AMPK(α2), 108 ± 17 nM; at KDR (setting [7]) it was 2.16 ± 0.101 µM.

Take `CCN(CC)CCNC(=O)c1c(C)[nH]c(/C=C2\C(=O)Nc3ccc(CCOC)cc32)c1C` [Compound No. 9, (Z)—N-(2-(Diethylamino)ethyl)-5-((5-(2-methoxyethyl)-2-oxoindolin-3-ylidene)methyl)-2,4-dimethyl-1H-pyrrole-3-carboxamide]: the values for the IC50 at AMPKα1 (setting [4]) and at AMPK(α2) were 296 ± 16 nM and 96.6 ± 4.3 nM, respectively.

`Cc1[nH]c(/C=C2\C(=O)Nc3ccc(F)cc32)c(C)c1C(=O)NCCN(C)C` [Compound No. 5, (Z)—N-(2-(Dimethylamino)ethyl)-5-((5-fluoro-2-oxoindolin-3-ylidene)methyl)-2,4-dimethyl-1H-pyrrole-3-carboxamide]: the IC50 came to 136 ± 16 nM at AMPKα1 (setting [4]), 50.4 ± 17.9 nM on AMPK(α2) and 0.493 ± 0.024 µM at KDR (setting [7]). Besides, the EC50 in the test on K562 cells [1] turned out to be 12.6 ± 0.93 µM; in the test with K562 cells [3] (setting [5]), 13.03 ± 0.04 µM.

For `CCc1ccc2c(c1)NC(=O)/C2=C\c1[nH]c(C)c(C(=O)NCCN(CC)CC)c1C` [Compound No. 24, (Z)—N-(2-(Diethylamino)ethyl)-5-((6-ethyl-2-oxoindolin-3-ylidene)methyl)-2,4-dimethyl-1H-pyrrole-3-carboxamide], the IC50 on AMPKα1 (setting [4]) came to 348 ± 71 nM.

On to `CCN(CC)CCNC(=O)c1c(C)[nH]c(/C=C2\C(=O)Nc3cc(Br)ccc32)c1C` [Compound No. 22, (Z)-5-((6-Bromo-2-oxoindolin-3-ylidene)methyl)-N-(2-(diethylamino)ethyl)-2,4-dimethyl-1H-pyrrole-3-carboxamide], for which the IC50 came out at 208 ± 33 nM on AMPKα1 (setting [4]) and 82.5 ± 27.9 nM on AMPK(α2).

Consider `CCN(CC)CCNC(=O)c1c(C)[nH]c(/C=C2\C(=O)Nc3cc(Cl)ccc32)c1C` [Compound No. 21, (Z)-5-((6-Chloro-2-oxoindolin-3-ylidene)methyl)-N-(2-(diethylamino)ethyl)-2,4-dimethyl-1H-pyrrole-3-carboxamide], for which the IC50 turned out to be 217 ± 37 nM at AMPKα1 (setting [4]), 65.1 ± 12.3 nM at AMPK(α2) and 0.206 ± 0.007 µM on KDR (setting [7]). Also, the EC50 in the test on K562 cells [2] worked out at 3.83 ± 0.46 µM; in the test with K562 cells [3] (setting [6]) it was 5.24 ± 0.22 µM; in the test with K562 cells [3] (setting [5]), 4.18 ± 0.41 µM.

In the case of `CCN(CC)CCNC(=O)c1c(C)[nH]c(/C=C2\C(=O)Nc3cc(C(C)C)ccc32)c1C` [Compound No. 25, N-(2-(Diethylamino)ethyl)-5-((6-isopropyl-2-oxoindolin-3-ylidene)methyl)-2,4-dimethyl-1H-pyrrole-3-carboxamide], the inhibition at 20 µM at AMPKα1 (read-out: AMPK(α1) % inhibition at 20 μM) is 70%.

For `CCN(CC)CCNC(=O)c1c(C)[nH]c(/C=C2\C(=O)Nc3ccc(C#N)cc32)c1C` [Compound No. 17, (Z)-5-((5-Cyano-2-oxoindolin-3-ylidene)methyl)-N-(2-(diethylamino)ethyl)-2,4-dimethyl-1H-pyrrole-3-carboxamide], the IC50 on AMPKα1 (setting [4]) is 93 ± 8 nM; on AMPK(α2) it was 16.2 ± 7.4 nM; on KDR (setting [7]) it was 0.391 ± 0.022 µM. Further, the results for the EC50 in the test with K562 cells [2] and in the test on K562 cells [3] (setting [5]) were 19.9 ± 1.21 µM and 13.6 ± 0.35 µM, respectively.

For the compound `CCN(CC)CCNC(=O)c1c(C)[nH]c(/C=C2\C(=O)Nc3ccc(CCOC(C)=O)cc32)c1C` [Compound No. 11, (Z)-2-(3-((4-((2-(Diethylamino)ethyl)carbamoyl)-3,5-dimethyl-1H-pyrrol-2-yl)methylene)-2-oxoindolin-5-yl)ethyl acetate], the IC50 at AMPKα1 (setting [4]) came to 418 ± 45 nM; on AMPK(α2) it was 111 ± 21 nM.

Take `CCN(CC)CCCNC(=O)c1c(C)[nH]c(/C=C2\C(=O)Nc3ccc(F)cc32)c1C` [Compound No. 8, (Z)—N-(3-(Diethylamino)propyl)-5-((5-fluoro-2-oxoindolin-3-ylidene)methyl)-2,4-dimethyl-1H-pyrrole-3-carboxamide]: the IC50 on AMPKα1 (setting [4]) came out at 152 ± 22 nM; on AMPK(α2), 38.6 ± 10.6 nM; on KDR (setting [7]) it was 0.48 ± 0.052 µM. The half-maximal effective concentration (EC50) in the test on K562 cells [1] turned out to be 13.5 ± 0.59 µM; in the test with K562 cells [2], 18 ± 0.32 µM; with K562 cells [3] (setting [5]) it was 13.27 ± 0.08 µM.

Regarding `CCN(CC)CCNC(=O)c1c(C)[nH]c(/C=C2\C(=O)Nc3ccccc32)c1C` [Compound No. 19, (Z)—N-(2-(Diethylamino)ethyl)-2,4-dimethyl-5-((2-oxoindolin-3-ylidene)methyl)-1H-pyrrole-3-carboxamide], the results for the 50% inhibitory concentration (IC50) at AMPKα1 (setting [4]) and on AMPK(α2) were 246 ± 11 nM and 88.5 ± 7.1 nM, respectively.

For `Cc1[nH]c(/C=C2\C(=O)Nc3ccc(F)cc32)c(C)c1C(=O)NCCN` [Compound No. 4, (Z)—N-(2-Aminoethyl)-5-((5-fluoro-2-oxoindolin-3-ylidene)methyl)-2,4-dimethyl-1H-pyrrole-3-carboxamide], the IC50 stood at 393 ± 27 nM on AMPKα1 (setting [4]) and 141 ± 33 nM at AMPK(α2).

The values are drawn from patent US12435059B2, “AMP-activated protein kinase inhibitors and methods of making and using the same” (The Regents of the University of Colorado, priority 2019, dated 2025).
